Structures can show the parent of a compound that is named as a salt.

The first assay deals with T1, BRD4 BD2 (Homo sapiens, UniProt O60885, Y97A).
T1 construct: BRD4 (1-477) (Y97A) and (Y390A); made in house; host or cells: E. coli (pET15b vector)
As to the kind of experiment: BRD4 BD2 mutant TR-FRET competition assay. It counts as binding. Conditions: average of N recorded values, read-out: BRD4 BD2 IC50 (average value) (converted). A general note: In TR-FRET formats the signal depends on donor and acceptor labels being close together.
In the case of `CNC(=O)c1cc(C(=O)NCCC2CCNCC2)cn(Cc2cccc3[nH]ccc23)c1=O` [Example 56, 1-((1H-Indol-4-yl)methyl)-N^3-methyl-2-oxo-N5-(2-(piperidin-4-yl)ethyl)-1,2-dihydropyridine-3,5-dicarboxamide], the IC50 is 15.8 nM.
Turning to `CNC(=O)c1cc(C(=O)NCCCC2CCNCC2)cn(Cc2ccccc2)c1=O` [Example 6a, 1-Benzyl-N^3-methyl-2-oxo-N^5-(3-(piperidin-4-yl)propyl)-1,2-dihydropyridine-3,5-dicarboxamide], the IC50 is 31.6 nM.
Same read-out and setting: for `CNC(=O)c1cc(C(=O)NCCCC2CCN(C)CC2)cn(Cc2ccccc2)c1=O` [Example 7, 1-Benzyl-N^3-methyl-N^5-(3-(1-methylpiperidin-4-yl)propyl)-2-oxo-1,2-dihydropyridine-3,5-dicarboxamide] the value was 31.6 nM.

Staying with this assay, now noted: read-out: pIC50 in the BRD4 BD2 assay (converted).
For `CNC(=O)c1cc(C(=O)NCCC2CCNCC2)cn(Cc2ccccc2)c1=O` [Example 2, 1-Benzyl-N^3-methyl-2-oxo-N^5-(2-(piperidin-4-yl)ethyl)-1,2-dihydropyridine-3,5-dicarboxamide], the IC50 is at most 100 nM.
For the molecule `CNC(=O)c1cc(C(=O)NC2CN(C(=O)OC(C)(C)C)C2)cn(Cc2ccccc2)c1=O` [Example 4, tert-Butyl 3-(1-benzyl-5-(methylcarbamoyl)-6-oxo-1,6-dihydropyridine-3-carboxamido)azetidine-1-carboxylate], the IC50 is 100 to 1000 nM.
Same read-out and setting: for `CNC(=O)c1cc(C(=O)NCC2CCS(=O)(=O)CC2)cn(Cc2ccccc2)c1=O` [Example 53, 1-Benzyl-N^5-((1,1-dioxidotetrahydro-2H-thiopyran-4-yl)methyl)-N^3-methyl-2-oxo-1,2-dihydropyridine-3,5-dicarboxamide] the value was 1000 to 100000 nM; for `CNC(=O)c1cc(C(=O)NCCC2CCCCN2)cn(Cc2ccccc2)c1=O` (stereo not drawn) [Example 40, 1-Benzyl-N^3-methyl-2-oxo-N^5-(2-(piperidin-2-yl)ethyl)-1,2-dihydropyridine-3,5-dicarboxamide hydrochloride], 100 to 1000 nM; for `CNC(=O)c1cc(C(=O)NC2CNC2)cn(Cc2ccccc2)c1=O` [Example 33, N^5-(Azetidin-3-l)-1-benzyl-N^3-methyl-2-oxo-1,2-dihydropyridine-3,5-dicarboxamide], 100 to 1000 nM.
Turning to `CNC(=O)c1cc(C(=O)NCCC2CN(C(C)=O)CCO2)cn(Cc2ccccc2)c1=O` (stereo not drawn) [Example 65, N^5-(2-(4-acetylmorpholin-2-yl)ethyl)-1-benzyl-N^3-methyl-2-oxo-1,2-dihydropyridine-3,5-dicarboxamide], the IC50 was 100 to 1000 nM.
On to `CNC(=O)c1cc(C(=O)NCCC2CCNCC2)cn([C@H](C)c2ccccc2)c1=O` [Example 18, (R)-N^3-Methyl-2-oxo-1-(1-phenylethyl)-N^5-(2-(piperidin-4-yl)ethyl)-1,2-dihydropyridine-3,5-dicarboxamide], for which the IC50 is at most 100 nM.
On the same count and under the same terms, for `CNC(=O)c1cc(C(=O)NCCC2CCNCC2)cn(Cc2cccc3[nH]ccc23)c1=O` [Example 56, 1-((1H-Indol-4-yl)methyl)-N^3-methyl-2-oxo-N5-(2-(piperidin-4-yl)ethyl)-1,2-dihydropyridine-3,5-dicarboxamide] the value was at most 100 nM; for `CNC(=O)c1cc(C(=O)NCCCC2CCNCC2)cn(Cc2ccccc2F)c1=O` [Example 14, 1-(2-Fluorobenzyl)-N^3-methyl-2-oxo-N^5-(3-(piperidin-4-yl)propyl)-1,2-dihydropyridine-3,5-dicarboxamide], at most 100 nM.
Same read-out and setting: in the case of `CNC(=O)c1cc(C(=O)NCCCC2CCNCC2)cn(Cc2ccccc2)c1=O` [Example 6a, 1-Benzyl-N^3-methyl-2-oxo-N^5-(3-(piperidin-4-yl)propyl)-1,2-dihydropyridine-3,5-dicarboxamide] it was at most 100 nM; in that of `CNC(=O)c1cc(C(=O)NCCCC2CCCN(C(=O)OC(C)(C)C)C2)cn(Cc2ccccc2)c1=O` (stereo not drawn) [Example 59, tert-Butyl 3-(3-(1-benzyl-5-(methylcarbamoyl)-6-oxo-1,6-dihydropyridine-3-carboxamido)propyl)piperidine-1-carboxylate], 100 to 1000 nM; in that of `CCNC(=O)c1cc(C(=O)NCCC[C@@H]2CNCCO2)cn(Cc2ccccc2)c1=O` [Example 84, (R)-1-benzyl-N^3-ethyl-N^5-(3-(morpholin-2-yl)propyl)-2-oxo-1,2-dihydropyridine-3,5-dicarboxamide], at most 100 nM.
Turning to `CNC(=O)c1cc(C(=O)NCCCC2(F)CCNCC2)cn(Cc2ccccc2)c1=O` [Example 61, 1-Benzyl-N^5-(3-(4-fluoropiperidin-4-yl)propyl)-N^3-methyl-2-oxo-1,2-dihydropyridine-3,5-dicarboxamide hydrochloride], the IC50 is at most 100 nM.
Still for that read-out and setting: in the case of `CNC(=O)c1cc(C(=O)NCCCC2CCN(C)CC2)cn(Cc2ccccc2)c1=O` [Example 7, 1-Benzyl-N^3-methyl-N^5-(3-(1-methylpiperidin-4-yl)propyl)-2-oxo-1,2-dihydropyridine-3,5-dicarboxamide] it was at most 100 nM.
On the same count and under the same terms, in the case of `CNC(=O)c1cc(C(=O)NCCC2CNCCO2)cn(Cc2ccccc2)c1=O` (stereo not drawn) [Example 66, 1-benzyl-N^3-methyl-N^5-(2-(morpholin-2-yl)ethyl)-2-oxo-1,2-dihydropyridine-3,5-dicarboxamide hydrochloride] it was 100 to 1000 nM; in that of `CNC(=O)c1cc(C(=O)NCCCC2CCCN(C)C2)cn(Cc2ccccc2)c1=O` (stereo not drawn) [Example 70, 1-Benzyl-N^3-methyl-N^5-(3-(1-methylpiperidin-3-yl)propyl)-2-oxo-1,2-dihydropyridine-3,5-dicarboxamide], at most 100 nM.
On the same count and under the same terms, in the case of `CNC(=O)c1cc(C(=O)NC2CCCOC2)cn(Cc2ccccc2)c1=O` (stereo not drawn) [Example 50, 1-Benzyl-N^3-methyl-2-oxo-N^5-(tetrahydro-2H-pyran-3-yl)-1,2-dihdyropyridine-3,5-dicarboxamide] it was 100 to 1000 nM; in that of `CNC(=O)c1cc(C(=O)NCCC2CCN(C(=O)OC(C)(C)C)CC2)cn(Cc2ccccc2)c1=O` [Example 32, tert-Butyl 4-(2-(1-benzyl-5-(methylcarbamoyl)-6-oxo-1,6-dihydropyridine-3-carboxamido)ethyl)piperidine-1-carboxylate], 100 to 1000 nM; in that of `CNC(=O)c1cc(C(=O)NC2CCS(=O)(=O)CC2)cn(Cc2ccccc2)c1=O` [Example 44, 1-Benzyl-N^5-(1,1-dioxidotetrahydro-2H-thiopyran-4-yl)-N^3-methyl-2-oxo-1,2-dihydropyridine-3,5-dicarboxamide], 100 to 1000 nM.
Take `CNC(=O)c1cc(C(=O)N[C@H]2[C@@H]3CN(C(=O)OC(C)(C)C)C[C@@H]32)cn(Cc2cccc3[nH]ccc23)c1=O` [Example 79, (1R,5S,6s)-tert-Butyl 6-(1-((1H-indol-4-yl)methyl)-5-(methylcarbamoyl)-6-oxo-1,6-dihydropyridine-3-carboxamido)-3-azabicyclo[3.1.0]hexane-3-carboxylate]: the IC50 is at most 100 nM.
Still for that read-out and setting: for `CNC(=O)c1cc(C(=O)NCCCC2(O)CCNCC2)cn(Cc2ccccc2)c1=O` [Example 57, 1-Benzyl-N^5-(3-(4-hydroxypiperidin-4-yl)propyl)-N^3-methyl-2-oxo-1,2-dihydropyridine-3,5-dicarboxamide] the value was at most 100 nM; for `CNC(=O)c1cc(C(=O)NCCCC2CCN(C(C)=O)CC2)cn(Cc2ccccc2)c1=O` [Example 8, N^5-(3-(1-Acetylpiperidin-4-yl)propyl)-1-benzyl-N^3-methyl-2-oxo-1,2-dihydropyridine-3,5-dicarboxamide], 100 to 1000 nM; for `CNC(=O)c1cc(C(=O)NCCC2CCNCC2)cn(Cc2cccc(C)c2F)c1=O` [Example 27, 1-(2-Fluoro-3-methylbenzyl)-N^3-methyl-2-oxo-N^5-(2-(piperidin-4-yl)ethyl)-1,2-dihydropyridine-3,5-dicarboxamide], 100 to 1000 nM.
For the molecule `CCNC(=O)c1cc(C(=O)NCCCC2CCNCC2)cn(Cc2ccccc2)c1=O` [Example 78, 1-benzyl-N^3-ethyl-2-oxo-N^5-(3-(piperidin-4-yl)propyl)-1,2-dihydropyridine-3,5-dicarboxamide], the IC50 is 100 to 1000 nM.

For the origin of these results see patent US10370356B2, “Pyridinone dicarboxamide for use as bromodomain inhibitors” (GlaxoSmithKline Intellectual Property (No. 2) Limited, priority 2015, dated 2019).
